# Reference: patent US9969741B2, “Pyrazolotriazines as inhibitors of nucleases” (MASARYKOVA UNIVERZITA, priority 2014, dated 2018)
# What was measured:
# MUS81/EME1 = target: T1, MUS81/EME1 (Homo sapiens, UniProt Q96NY9); test: Nuclease inhibition assay, MUS81/EME1 (3′ flap fluorescent DNA substrate, gel readout); assay type: biochemical; settings: 5 nM enzyme, 5 nM 3′ flap substrate, 15 min at 30° C.
# T1 sequence (Q96NY9 1-551): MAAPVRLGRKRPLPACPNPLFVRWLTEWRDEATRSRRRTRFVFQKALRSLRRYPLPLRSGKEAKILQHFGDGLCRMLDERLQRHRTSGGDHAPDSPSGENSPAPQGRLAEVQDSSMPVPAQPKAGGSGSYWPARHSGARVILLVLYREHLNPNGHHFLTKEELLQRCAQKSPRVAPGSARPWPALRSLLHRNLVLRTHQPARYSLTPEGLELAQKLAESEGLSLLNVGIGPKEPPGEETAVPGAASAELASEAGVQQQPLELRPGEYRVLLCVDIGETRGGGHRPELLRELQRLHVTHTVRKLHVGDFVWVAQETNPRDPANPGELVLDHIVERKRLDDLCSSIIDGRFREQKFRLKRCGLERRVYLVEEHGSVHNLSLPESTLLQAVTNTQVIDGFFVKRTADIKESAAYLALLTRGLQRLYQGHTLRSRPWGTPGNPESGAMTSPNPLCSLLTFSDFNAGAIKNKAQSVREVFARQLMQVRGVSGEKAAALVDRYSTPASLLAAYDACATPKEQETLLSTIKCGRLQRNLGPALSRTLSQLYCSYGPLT
# T1 sequence (Q96AY2 1-570 partner): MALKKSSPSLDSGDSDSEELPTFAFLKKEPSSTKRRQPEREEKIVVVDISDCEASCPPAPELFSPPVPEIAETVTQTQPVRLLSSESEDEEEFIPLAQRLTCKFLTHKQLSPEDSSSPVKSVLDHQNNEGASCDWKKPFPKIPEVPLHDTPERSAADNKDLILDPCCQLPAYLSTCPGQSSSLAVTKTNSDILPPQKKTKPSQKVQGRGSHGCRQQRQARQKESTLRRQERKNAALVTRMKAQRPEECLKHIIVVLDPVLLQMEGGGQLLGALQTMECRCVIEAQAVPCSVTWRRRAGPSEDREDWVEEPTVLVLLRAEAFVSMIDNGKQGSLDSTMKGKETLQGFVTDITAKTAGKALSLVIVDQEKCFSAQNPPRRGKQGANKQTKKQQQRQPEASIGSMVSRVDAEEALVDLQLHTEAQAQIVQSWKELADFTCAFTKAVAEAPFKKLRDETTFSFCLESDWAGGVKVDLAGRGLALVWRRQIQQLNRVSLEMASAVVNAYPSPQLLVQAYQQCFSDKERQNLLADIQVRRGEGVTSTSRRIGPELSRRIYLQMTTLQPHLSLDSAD
# Source text: (§1) In vitro assays were used for the determination of compound's IC50 values for inhibition of individual nucleases, i.e., MUS81/EME1, FEN1, EXO1, and MRE11. To generate IC50 values, concentration of compound was plotted against relative nuclease activity (in %). The dose-response curves were generated from inhibition data, from 5 point serial dilutions of inhibitory compounds, each in triplicate and fitted to a standard sigmoid curve. IC50 values were derived by standard nonlinear regression analysis.
# (§2) All tested compounds were diluted in 100% DMSO (dimethylsulfoxide) to prepare working stocks with different concentrations. To keep the DMSO concentration constant in every reaction, always 0.5 μl of the compound stock was added to the reaction buffer. The reaction buffer differs depending on the enzyme tested. Also concentration of the compounds in the reaction depends on the particular enzyme, since the inhibitory effect of the compounds vary between the enzymes. Nevertheless, always doubling dilutions in the range 200-0.8 μM was used. The compound was added as the first component in the reaction buffer, followed by the enzyme addition. Short (15 minutes) pre-incubation step followed before the reaction was initiated by addition of DNA substrate (5 nM).
# As a negative control, DNA substrate specific for each particular enzyme without the addition of the enzyme and the compound was used. The positive control contained all components of the reaction, except the compound of interest. However, to compensate for solvent effects, DMSO (at a final concentration of 2.5%) was included in the reaction.
# (§3) For this experiment we prepared short fluorescently labeled oligonucleotide-based DNA substrates with specific structures reflecting the biochemical activities of tested individual nucleases (Table 1). These substrates were prepared by annealing of synthetic oligonucleotides purchased from VBC Biotech. Composition of each substrate is indicated below the table; the corresponding oligonucleotides were combined in equimolar ratios. For visualization, each substrate was labeled by fluorescent dye (fluorescein), which can be detected in the gel using appropriate imaging system (FLA-9000, Fuji) with filters for particular wavelengths (excitation: 485 nm, emission: 535 nm).
# Nuclease assays were performed in reaction buffer specific for particular enzyme: MUS81/EME1 (50 mM Tris pH=7.5, 5 mM MgCl2, 1 mM DTT a 100 μg/ml BSA), MRE11 (30 mM Bis-Tris pH=7.0, 50 μg/ml BSA, 1 mM DTT a 250 μM MnCl2), EXO1 and FEN1 (50 mM Tris pH=7.5, 1 mM MgCl2, 1 mM DTT a 100 μg/ml BSA). The individual reactions were prepared by mixing with highly purified enzyme (MUS81/EME1 (5 nM), MRE11 (5 nM), EXO1 (5 nM) or FEN1 (10 nM); purification protocols described below), and different concentration of inhibitor (mentioned above) in corresponding reaction buffer. The final volume of the reaction was 20 μl. After short pre-incubation (15 minutes at room temperature), the reaction was initiated by addition of 5 nM of corresponding fluorescently labeled DNA substrate (3′ flap for MUS81/EME1, 5′ flap for MRE11 and FEN1, 3′ OH for EXO1; see FIG. 1) and incubated for 15 minutes at 30° C. Next, the reaction was stopped and deproteinized by addition of 2 μl of stop buffer, containing 0.1% SDS and 500 μg/ml proteinase K, and incubated for additional 5 minutes at 30° C. Then the loading dye, containing glycerol (60% glycerol, 10 mM Tris pH=7.4, 60 mM EDTA a 0.1% Orange G), was added to each reaction ( 1/10 of the reaction volume), and the whole mixture was subjected to electrophoresis in 10% polyacrylamide native gel (110 V, 40 min, 1× TBE). Fluorescently labeled DNA was detected by FLA-9000 scanner (Fuji) and the result was evaluated using Multi-Gauge V3.2 software (Fuji).
# The Mus81/Eme1 expression construct was a kind gift from Dr. Steve West (Cancer Research UK). Briefly, the nuclease complex was purified as follows. […]
# FEN1 = FEN1 (Homo sapiens, UniProt P39748); test: Nuclease inhibition assay, FEN1 (5′ flap fluorescent DNA substrate, gel readout); assay type: biochemical; settings: 10 nM enzyme, 5 nM 5′ flap substrate, 15 min at 30° C.
# Chain of FEN1 (P39748 whole entry, species assumed): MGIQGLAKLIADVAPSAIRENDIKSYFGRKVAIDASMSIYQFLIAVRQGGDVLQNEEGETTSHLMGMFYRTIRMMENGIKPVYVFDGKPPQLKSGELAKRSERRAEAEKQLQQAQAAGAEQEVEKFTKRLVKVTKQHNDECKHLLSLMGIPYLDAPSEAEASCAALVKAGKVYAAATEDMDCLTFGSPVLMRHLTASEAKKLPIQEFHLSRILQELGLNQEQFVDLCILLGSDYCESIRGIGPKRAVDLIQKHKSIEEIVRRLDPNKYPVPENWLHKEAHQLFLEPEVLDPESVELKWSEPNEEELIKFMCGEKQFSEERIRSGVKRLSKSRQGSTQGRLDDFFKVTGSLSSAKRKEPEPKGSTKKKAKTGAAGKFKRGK
# Source text: as §1
# as §2, with “Short (15 minutes) pre-incubation step followed before the reaction was initiated by addition of DNA substrate (5 nM).” left out
# as §3, with “These substrates were prepared by annealing of synthetic oligonucleotides purchased from VBC Biotech. Composition of each substrate is indicated below the table; the corresponding oligonucleotides were combined in equimolar ratios.” left out
# Nuclease assays were performed in reaction buffer specific for particular enzyme: MUS81/EME1 (50 mM Tris pH=7.5, 5 mM MgCl2, 1 mM DTT a 100 μg/ml BSA), MRE11 (30 mM Bis-Tris pH=7.0, 50 μg/ml BSA, 1 mM DTT a 250 μM MnCl2), EXO1 and FEN1 (50 mM Tris pH=7.5, 1 mM MgCl2, 1 mM DTT a 100 μg/ml BSA). […] Fluorescently labeled DNA was detected by FLA-9000 scanner (Fuji) and the result was evaluated using Multi-Gauge V3.2 software (Fuji). […]
SMILES,IC50 (MUS81/EME1) [µM],IC50 (FEN1) [µM]
CCc1nn2c(N)c(-c3nc4ccccc4[nH]3)nnc2c1-c1ccc(F)cc1 [Preparative Example 5A],< 10,> 50
Nc1c(-c2nc3ccccc3[nH]2)nnc2cc(-c3ccccc3)nn12 [Preparative Example 5C],< 50,> 50
Nc1c(-c2nc3ccccc3[nH]2)nnc2cc(-c3cccc4ccccc34)nn12 [Preparative Example 5K],< 10,> 50
